Laboratory results taken from the NIST ThermoML archive (doi:10.1016/j.jct.2017.11.012).
Numbers after ± are expanded uncertainties.

Conditions: for mass density: 101.33 kPa, Liquid, Buoyancy - hydrostatic balance with magnetic suspension - one sinker

CCCCCn1cc[n+](C)c1.[Br-] [1-pentyl-3-methylimidazolium bromide]
Conditions	mass density [kg/m3]
298.49 K	1262.83 ± 0.69
303.3 K	1259.38 ± 0.69
308.12 K	1256.49 ± 0.69
313.27 K	1252.83 ± 0.69
318.27 K	1249.49 ± 0.69
323.3 K	1245.55 ± 0.69
327.41 K	1242.66 ± 0.69
333.16 K	1239.16 ± 0.69
338.01 K	1236.12 ± 0.69
343.01 K	1232.8 ± 0.69
348.13 K	1229.53 ± 0.69
353.01 K	1226.21 ± 0.69
358.12 K	1222.61 ± 0.69
362.97 K	1219.41 ± 0.69

Conditions	surface tension liquid-gas [mN/m]
333.23 K, Ring tensiometer	41.96 ± 0.94
333.26 K, Wilhelmy Plate	41.79 ± 0.11
338.06 K, Ring tensiometer	41.95 ± 0.94
338.08 K, Wilhelmy Plate	41.6 ± 0.11
343.07 K, Ring tensiometer	41.84 ± 0.94
343.09 K, Wilhelmy Plate	41.38 ± 0.11
348.23 K, Ring tensiometer	41.59 ± 0.94
348.26 K, Wilhelmy Plate	41.18 ± 0.11
353.11 K, Ring tensiometer	41.45 ± 0.94
353.13 K, Wilhelmy Plate	41 ± 0.1
358.22 K, Ring tensiometer	41.24 ± 0.94
358.24 K, Wilhelmy Plate	40.81 ± 0.1
363.07 K, Ring tensiometer	41.04 ± 0.94
363.12 K, Wilhelmy Plate	40.6 ± 0.1

CCCCn1cc[n+](C)c1.[Br-] [1-butyl-3-methylimidazolium bromide]
surface tension liquid-gas [mN/m]
Conditions	Ring tensiometer	Wilhelmy Plate
308.39 K	50.28 ± 0.86	49.98 ± 0.11
313.11 K	49.8 ± 0.85	49.69 ± 0.11
318.48 K	49.51 ± 0.85	49.33 ± 0.11
323.54 K	–	48.98 ± 0.11
323.57 K	49.22 ± 0.85	–
328.1 K	–	48.67 ± 0.11
328.14 K	48.96 ± 0.85	–
333.02 K	–	48.35 ± 0.11
333.03 K	48.6 ± 0.84	–
337.99 K	48.27 ± 0.84	–
338.01 K	–	48.07 ± 0.11
342.75 K	48 ± 0.84	47.75 ± 0.11
349.14 K	47.72 ± 0.84	–
349.16 K	–	47.31 ± 0.1
353.12 K	47.24 ± 0.83	–
353.41 K	–	47.09 ± 0.1
358.27 K	47.27 ± 0.83	–
358.3 K	–	46.78 ± 0.1
362.9 K	46.86 ± 0.83	–
362.92 K	–	46.39 ± 0.1

Conditions	mass density [kg/m3]
308.39 K	1299.64 ± 0.46
313.12 K	1296.36 ± 0.46
318.5 K	1292.56 ± 0.46
323.58 K	1288.88 ± 0.46
328.14 K	1285.46 ± 0.46
333.02 K	1281.54 ± 0.46
337.96 K	1278.29 ± 0.46
342.67 K	1275.32 ± 0.46
349.08 K	1271.43 ± 0.46
353.08 K	1268.23 ± 0.46
358.19 K	1264.49 ± 0.46
362.86 K	1261.43 ± 0.46

CCCCCCCCn1cc[n+](C)c1.[Br-] [1-methyl-3-octylimidazolium bromide]
Conditions	mass density [kg/m3]
293.61 K	1173.83 ± 0.79
298.22 K	1170.38 ± 0.79
303.23 K	1166.69 ± 0.79
307.98 K	1163.19 ± 0.79
313.53 K	1159.21 ± 0.79
318.39 K	1155.7 ± 0.79
323.35 K	1151.66 ± 0.79
328.26 K	1147.97 ± 0.79
332.57 K	1145.04 ± 0.79
338.39 K	1140.81 ± 0.79
342.96 K	1137.99 ± 0.79
347.82 K	1135.43 ± 0.79
353.15 K	1131.58 ± 0.79
358.97 K	1127.78 ± 0.79
360.84 K	1126.32 ± 0.79

surface tension liquid-gas [mN/m]
Conditions	Ring tensiometer	Wilhelmy Plate
303.23 K	32.9 ± 0.63	32.52 ± 0.12
307.93 K	–	32.34 ± 0.12
307.95 K	32.68 ± 0.63	–
313.51 K	32.49 ± 0.63	32.16 ± 0.12
318.36 K	–	31.99 ± 0.12
318.37 K	32.28 ± 0.63	–
323.33 K	–	31.75 ± 0.12
323.34 K	32.03 ± 0.62	–
328.25 K	–	31.56 ± 0.12
328.26 K	31.79 ± 0.62	–
332.59 K	31.67 ± 0.62	–
332.6 K	–	31.43 ± 0.12
338.4 K	31.5 ± 0.62	–
338.44 K	–	31.17 ± 0.11
343.06 K	30.97 ± 0.62	–
343.07 K	–	30.89 ± 0.11
347.49 K	30.57 ± 0.61	–
347.69 K	–	30.73 ± 0.11
352.5 K	–	30.58 ± 0.11
352.52 K	30.66 ± 0.61	–
357.51 K	30.27 ± 0.61	–
357.64 K	–	30.33 ± 0.11
360.82 K	30.43 ± 0.61	–
360.88 K	–	30.24 ± 0.11

CCn1cc[n+](C)c1.[Br-] [1-ethyl-3-methylimidazolium bromide]
surface tension liquid-gas [mN/m]
Conditions	343.14 K	348.29 K	348.32 K	352.84 K	358.28 K	364.1 K	364.11 K
Ring tensiometer	62.01 ± 1.1	61.86 ± 1.1	–	61.28 ± 1.1	61.25 ± 1.1	60.53 ± 1.1	–
Wilhelmy Plate	–	–	61.4 ± 0.08	61.03 ± 0.08	60.65 ± 0.08	–	60.34 ± 0.08

Conditions	mass density [kg/m3]
348.26 K	1381.17 ± 0.64
352.77 K	1378.39 ± 0.64
358.17 K	1375.04 ± 0.64
364.02 K	1370.88 ± 0.64

CCC[n+]1ccn(C)c1.[Br-] [1-methyl-3-propylimidazolium bromide]
surface tension liquid-gas [mN/m]
Conditions	Ring tensiometer	Wilhelmy Plate
328.53 K	–	55.02 ± 0.1
328.55 K	55.07 ± 0.75	–
333.09 K	–	54.74 ± 0.1
333.1 K	55.08 ± 0.75	–
337.75 K	54.69 ± 0.75	54.46 ± 0.1
343.78 K	54.17 ± 0.74	–
343.8 K	–	53.93 ± 0.1
347.98 K	53.66 ± 0.74	–
348.01 K	–	53.75 ± 0.1
352.22 K	–	53.51 ± 0.1
352.34 K	53.52 ± 0.73	–
358.15 K	52.86 ± 0.73	–
358.17 K	–	53.09 ± 0.1
362.78 K	52.94 ± 0.73	–
362.89 K	–	52.72 ± 0.1

Conditions	mass density [kg/m3]
333.07 K	1332.55 ± 0.54
337.73 K	1329.41 ± 0.54
343.74 K	1325.39 ± 0.54
347.91 K	1322.26 ± 0.54
352.28 K	1318.84 ± 0.54
358.1 K	1314.79 ± 0.54
362.76 K	1310.9 ± 0.54

Br.Cn1ccnc1 [1-methylimidazolium bromide]
surface tension liquid-gas [mN/m]
Conditions	Ring tensiometer	Wilhelmy Plate
323.07 K	67.99 ± 1	68.35 ± 0.18
328.84 K	67.68 ± 1	67.81 ± 0.17
332.74 K	–	67.37 ± 0.17
332.76 K	67.45 ± 1	–
337.93 K	67.14 ± 1	–
338.02 K	–	66.81 ± 0.17
344.29 K	66 ± 1	–
344.42 K	–	66.16 ± 0.17
347.21 K	65.6 ± 1	–
347.25 K	–	65.85 ± 0.17
353.02 K	64.6 ± 0.99	–
353.08 K	–	65.23 ± 0.17
358.29 K	64.85 ± 0.99	–
358.33 K	–	64.67 ± 0.17
364.65 K	64.42 ± 0.99	–
364.75 K	–	63.96 ± 0.17

Conditions	mass density [kg/m3]
328.83 K	1557.9 ± 0.9
332.76 K	1554.36 ± 0.9
337.92 K	1550.16 ± 0.9
344.29 K	1544.92 ± 0.9
347.1 K	1542.88 ± 0.9
353.02 K	1538.47 ± 0.9
358.15 K	1534.17 ± 0.9
364.58 K	1530.63 ± 0.9
